Target: Plk1 (Homo sapiens, UniProt P53350)
Experiment: biochemical

Chain of Plk1 (P53350 20-338): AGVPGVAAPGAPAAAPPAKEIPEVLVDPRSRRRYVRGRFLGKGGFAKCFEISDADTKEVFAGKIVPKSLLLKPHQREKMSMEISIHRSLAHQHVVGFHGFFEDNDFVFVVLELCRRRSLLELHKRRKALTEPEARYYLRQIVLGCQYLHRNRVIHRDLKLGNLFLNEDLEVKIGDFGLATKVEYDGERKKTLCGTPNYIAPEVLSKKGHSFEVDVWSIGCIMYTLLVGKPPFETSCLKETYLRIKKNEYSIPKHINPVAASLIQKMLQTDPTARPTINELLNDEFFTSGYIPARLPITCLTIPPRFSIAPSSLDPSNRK

Row | SMILES | Ki
1 | COc1cc(C(=O)N(C)C)ccc1Nc1ncc2c(n1)N(C1CCCC1)CC(C)(C)C(=O)N2C [Compound I-215, 4-(9-cyclopentyl-5,7,7-trimethyl-6-oxo-6,7,8,9-tetrahydro-5H-pyrimido[4,5-b][1,4]diazepin-2-ylamino)-3-methoxy-N,N-dimethylbenzamide] | 10 to 100 nM
2 | COc1cc(C(=O)NC[C@@H]2CCCC[C@@H]2O)ccc1Nc1ncc2c(n1)N(C1CCCC1)CC(C)(C)C(=O)N2C [Compound I-216, 4-(9-cyclopentyl-5,7,7-trimethyl-6-oxo-6,7,8,9-tetrahydro-5H-pyrimido[4,5-b][1,4]diazepin-2-ylamino)-N-(((1S,2S)-2-hydroxycyclohexyl)methyl)-3-methoxybenzamide] | < 10 nM
3 | COC[C@H](C)NC(=O)c1ccc(Nc2ncc3c(n2)N(C2CCCC2)CC(C)(C)C(=O)N3C)c(OC)c1 [Compound I-217, (S)-4-(9-cyclopentyl-5,7,7-trimethyl-6-oxo-6,7,8,9-tetrahydro-5H-pyrimido[4,5-b][1,4]diazepin-2-ylamino)-3-methoxy-N-(1-methoxypropan-2-yl)benzamide] | < 10 nM
4 | CCNC(=O)c1ccc(Nc2ncc3c(n2)N(C2CCCC2)CC(C)(C)C(=O)N3C)c(OC)c1 [Compound I-219, 4-(9-cyclopentyl-5,7,7-trimethyl-6-oxo-6,7,8,9-tetrahydro-5H-pyrimido[4,5-b][1,4]diazepin-2-ylamino)-N-ethyl-3-methoxybenzamide] | < 10 nM
5 | COc1cc(C(=O)Nc2ccccn2)ccc1Nc1ncc2c(n1)N(C1CCCC1)CC(C)(C)C(=O)N2C [Compound I-221, 4-(9-cyclopentyl-5,7,7-trimethyl-6-oxo-6,7,8,9-tetrahydro-5H-pyrimido[4,5-b][1,4]diazepin-2-ylamino)-3-methoxy-N-(pyridin-2-yl)benzamide] | < 10 nM
6 | COc1cc(C(=O)N[C@@H]2C[C@H]2c2ccccc2)ccc1Nc1ncc2c(n1)N(C1CCCC1)CC(C)(C)C(=O)N2C [Compound I-225, 4-(9-cyclopentyl-5,7,7-trimethyl-6-oxo-6,7,8,9-tetrahydro-5H-pyrimido[4,5-b][1,4]diazepin-2-ylamino)-3-methoxy-N-((1R,2S)-2-phenylcyclopropyl)benzamide] | < 10 nM
7 | COc1cc(C(=O)N[C@H](C)c2ccccc2)ccc1Nc1ncc2c(n1)N(C1CCCC1)CC(C)(C)C(=O)N2C [Compound I-226, (R)-4-(9-cyclopentyl-5,7,7-trimethyl-6-oxo-6,7,8,9-tetrahydro-5H-pyrimido[4,5-b][1,4]diazepin-2-ylamino)-3-methoxy-N-(1-phenylethyl)benzamide] | < 10 nM
8 | COc1cc(C(=O)Nc2ccnc(Cl)c2)ccc1Nc1ncc2c(n1)N(C1CCCC1)CC(C)(C)C(=O)N2C [Compound I-227, N-(2-chloropyridin-4-yl)4-(9-cyclopentyl-5,7,7-trimethyl-6-oxo-6,7,8,9-tetrahydro-5H-pyrimido[4,5-b][1,4]diazepin-2-ylamino)-3-methoxybenzamide] | < 10 nM
9 | COc1cc(C(=O)Nc2cccnc2OC)ccc1Nc1ncc2c(n1)N(C1CCCC1)CC(C)(C)C(=O)N2C [Compound I-228, 4-(9-cyclopentyl-5,7,7-trimethyl-6-oxo-6,7,8,9-tetrahydro-5H-pyrimido[4,5-b][1,4]diazepin-2-ylamino)-3-methoxy-N-(2-methoxypyridin-3-yl)benzamide] | < 10 nM
10 | COc1cc(C(=O)NCC2CCCC2)ccc1Nc1ncc2c(n1)N(C1CCCC1)CC(C)(C)C(=O)N2C [Compound I-230, 4-(9-cyclopentyl-5,7,7-trimethyl-6-oxo-6,7,8,9-tetrahydro-5H-pyrimido[4,5-b][1,4]diazepin-2-ylamino)-N-(cyclopentylmethyl)-3-methoxybenzamide] | < 10 nM
11 | COc1cc(C(=O)Nc2cc(C)[nH]n2)ccc1Nc1ncc2c(n1)N(C1CCCC1)CC(C)(C)C(=O)N2C [Compound I-231, 4-(9-cyclopentyl-5,7,7-trimethyl-6-oxo-6,7,8,9-tetrahydro-5H-pyrimido[4,5-b][1,4]diazepin-2-ylamino)-3-methoxy-N-(5-methyl-1H-pyrazol-3-yl)benzamide] | < 10 nM
12 | COc1cc(C(=O)NCC#N)ccc1Nc1ncc2c(n1)N(C1CCCC1)CC(C)(C)C(=O)N2C [Compound I-233, N-(cyanomethyl)-4-(9-cyclopentyl-5,7,7-trimethyl-6-oxo-6,7,8,9-tetrahydro-5H-pyrimido[4,5-b][1,4]diazepin-2-ylamino)-3-methoxybenzamide] | < 10 nM
13 | COc1cc(C(=O)Nc2ccncc2C(F)(F)F)ccc1Nc1ncc2c(n1)N(C1CCCC1)CC(C)(C)C(=O)N2C [Compound I-234] | < 10 nM

The next lines start with the values.

Row | Ki | SMILES
14 | < 10 nM | CCCNC(=O)c1ccc(Nc2ncc3c(n2)N(C2CCCC2)CC(C)(C)C(=O)N3C)c(OC)c1 [Compound I-218, 4-(9-cyclopentyl-5,7,7-trimethyl-6-oxo-6,7,8,9-tetrahydro-5H-pyrimido[4,5-b][1,4]diazepin-2-ylamino)-3-methoxy-N-propylbenzamide]
15 | < 10 nM | COc1cc(C(=O)N2CC(OC)C2)ccc1Nc1ncc2c(n1)N(C1CCCC1)CC(C)(C)C(=O)N2C [Compound I-220, 9-cyclopentyl-2-(2-methoxy-4-(3-methoxyazetidine-1-carbonyl)phenylamino)-5,7,7-trimethyl-8,9-dihydro-5H-pyrimido[4,5-b][1,4]diazepin-6(7H)-one]
16 | < 10 nM | COc1cc(C(=O)Nc2ccncn2)ccc1Nc1ncc2c(n1)N(C1CCCC1)CC(C)(C)C(=O)N2C [Compound I-222, 4-(9-cyclopentyl-5,7,7-trimethyl-6-oxo-6,7,8,9-tetrahydro-5H-pyrimido[4,5-b][1,4]diazepin-2-ylamino)-3-methoxy-N-(pyrimidin-4-yl)benzamide]
17 | < 10 nM | COc1cc(C(=O)Nc2nccs2)ccc1Nc1ncc2c(n1)N(C1CCCC1)CC(C)(C)C(=O)N2C [Compound I-223, 4-(9-cyclopentyl-5,7,7-trimethyl-6-oxo-6,7,8,9-tetrahydro-5H-pyrimido[4,5-b][1,4]diazepin-2-ylamino)-3-methoxy-N-(thiazol-2-yl)benzamide]
18 | < 10 nM | COc1cc(C(=O)Nc2cnccn2)ccc1Nc1ncc2c(n1)N(C1CCCC1)CC(C)(C)C(=O)N2C [Compound I-224, 4-(9-cyclopentyl-5,7,7-trimethyl-6-oxo-6,7,8,9-tetrahydro-5H-pyrimido[4,5-b][1,4]diazepin-2-ylamino)-3-methoxy-N-(pyrazin-2-yl)benzamide]
19 | < 10 nM | COc1cc(C(=O)NC[C@@H]2CCCC[C@H]2O)ccc1Nc1ncc2c(n1)N(C1CCCC1)CC(C)(C)C(=O)N2C [Compound I-229, 4-(9-cyclopentyl-5,7,7-trimethyl-6-oxo-6,7,8,9-tetrahydro-5H-pyrimido[4,5-b][1,4]diazepin-2-ylamino)-N-(((1S,2R)-2-hydroxycyclohexyl)methyl)-3-methoxybenzamide]
20 | < 10 nM | COc1cc(C(=O)Nc2cc(C)ns2)ccc1Nc1ncc2c(n1)N(C1CCCC1)CC(C)(C)C(=O)N2C [Compound I-232, 4-(9-cyclopentyl-5,7,7-trimethyl-6-oxo-6,7,8,9-tetrahydro-5H-pyrimido[4,5-b][1,4]diazepin-2-ylamino)-3-methoxy-N-(3-methylisothiazol-5-yl)benzamide]
